These results are taken from patent US5891871A, “Substituted 2,3-benzodiazepin-4-ones and the use thereof” (CoCensys, Inc., priority 1997, dated 1999).

Molecules are shown by their SMILES.

The conditions of assay [1]: literature; cited from earlier work.
For assay [2] the following is noted: literature; cited from earlier work. The source holds these as a separate data set.
Assay [3] has as its system AMPA receptor. Description: AMPA receptor antagonism / positive modulation: AMPA induced current in Xenopus oocytes expressing rat whole brain poly(A)+ RNA (electrophysiology). Format: cell-based. Particulars: for IC50: oocytes expressing rat brain AMPA receptors; for AMPA positive potentiation, 200% @ μM: concentration at which AMPA current is potentiated 200%. As for the experimental part: The novel substituted 2,3-benzodiazepin-4-ones were assessed by electrophysiological assays in Xenopus oocytes expressing rat whole brain poly(A)^+ RNA (see Keana et al, J. Med. Chem. 38. 4367-4379 (1995)) or in cultured rat cortical neurons (see Woodward et. al. Mol. Pharmacol. 47: 568-581 (1995)) for AMPA receptor activity. Compounds which are useful for treating or preventing the adverse consequences of stroke, hypoglycemia, neurodegenerative disorders, anxiety, epilepsy or psychosis, or which induce analgesia, will inhibit the currents across the membranes of the oocyte expressing AMPA receptors. However, if the compound potentiates currents across the oocyte membrane, then the compound is expected to be useful in enhancing cognition or treating schizophrenia or neurodegenerative diseases such as Parkinson's Disease.
The ability of AMPA receptor antagonists or positive modulators to inhibit or enhance AMPA induced current in oocyte expressing neuronal AMPA receptor was determined using procedures fully described in Keana et al, J. Med. Chem. 38: 4367-4379 (1995). […] The compounds of examples 22, 30 and 31 are positive modulators of AMPA receptor. They potentiate the AMPA current 200% at a concentration of 11, 10 and 11 μM, respectively.

In assay [4] the test system is mice. Description: Maximal Electroshock-induced Seizure (MES) test. Format: in vivo. Particulars: for ED50: Mus musculus, mice, iv; for anticonvulsant activity in the MES experiment: in words. The protocol:
Seizures are induced by application of current (50 mA, 60 pulses/sec, […], 1 sec duration, .c.) through saline-coated corneal electrodes using a Ugo Basile ECT device (Model 7801). […] A tonic seizure is defined as a hindlimb extension in excess of 90 degrees from the plane of the body. Results are treated in a quintal manner.
(Protection in the maximal electroshock model is a classic sign of anticonvulsant action.)

For assay [5] the following is noted: literature; cited from earlier work. This is another data set of the same source.
The test system of assay [6] is rat. Particulars: literature; cited from earlier work.
Assay [7] concerns AMPA receptors. The following applies: literature; cited from earlier work.
The conditions of assay [8]: literature; cited from earlier work. This is another data set of the same source.

On to `CC1Cc2cc3c(cc2C(c2ccc(N)cc2)=NN1)OCO3` (centres unmarked), for which the central nervous effect result in assay [1] is reported as “CNS stimulating activity”.

For `O=C(c1ccc2c(c1)OCO2)N1CCCCC1` [BDP, 1-(1,3-benzodioxol-5-ylcarbonyl) piperidine], the memory enhancement entry in assay [2] is given as “enhance memory”.

Regarding `Cc1ccc(C2=NNC(=O)Cc3cc4c(cc32)OCO4)cc1` [Example 9, 7,8-Methylenedioxy-1-(4-methylphenyl)-3,5-dihydro-2,3-benzodiazepin-4(4H)-one], the IC50 – broadly, the midpoint of a concentration-inhibition curve – in assay [3] stood at 15 µM.

With `Nc1ccc(C2=NNC(=O)Cc3cc4c(cc32)OCO4)cc1` [Example 14, 1-(4-Aminophenyl)-7,8-methylenedioxy-3,5-dihydro-2,3-benzodiazepin-4(4H)-one], in assay [4], the ED50 (commonly the dose at which the effect has come halfway, by size or by number of responders) is 2.4 mg/kg and the “anticonvulsant activity in the MES experiment” value was “active as anticonvulsants”. For the same molecule, the IC50 in assay [3] worked out at 3 µM.

Take `CNC(=O)N1N=C(c2ccccc2)c2cc3c(cc2CC1=O)OCO3` [Example 15, 7,8-Methylenedioxy-3-methylaminocarbonyl-1-phenyl-3,5-dihydro-2,3-benzodiazepin-4(4H)-one]: the half-maximal inhibitory concentration (IC50) in assay [3] is 26 µM.

Regarding `CC(C)N1N=C(c2ccccc2)c2cc3c(cc2CC1=O)OCO3` [Example 18, 3-Isopropyl-7,8-methylenedioxy-1-phenyl-3,5-dihydro-2,3-benzodiazepin-4(4H)-one], the “AMPA positive potentiation, 200% @ μM” value in assay [3] was found to be 30 µM.

On to `CCC(C)N1N=C(c2ccccc2)c2cc3c(cc2CC1=O)OCO3` (centres unmarked) [Example 21, 3-(2-Butyl)-7,8-methylenedioxy-1-phenyl-3,5-dihydro-2,3-benzodiazepin-4(4H)-one], for which the “AMPA positive potentiation, 200% @ μM” value in assay [3] was found to be 12 µM.

In the case of `CCC(CC)N1N=C(c2ccccc2)c2cc3c(cc2CC1=O)OCO3` [Example 22, 7,8-Methylenedioxy-3-(3-pentyl)-1-phenyl-3,5-dihydro-2,3-benzodiazepin-4(4H)-one], the “AMPA positive potentiation, 200% @ μM” value in assay [3] is 11 µM.

For `CCCC(C)N1N=C(c2ccccc2)c2cc3c(cc2CC1=O)OCO3` (centres unmarked) [Example 25, 7,8-Methylenedioxy-3-(2-pentyl)-1-phenyl-3,5-dihydro-2,3-benzodiazepin-4(4H)-one], in assay [3], the “AMPA positive potentiation, 200% @ μM” value amounted to 160 µM.

`O=C1Cc2cc3c(cc2C(c2ccccc2)=NN1C1CCCCCC1)OCO3` [Example 30, 3-Cycloheptyl-7,8-methylenedioxy-1-phenyl-3,5-dihydro-2,3-benzodiazepin-4(4H)-one]: the “AMPA positive potentiation, 200% @ μM” value in assay [3] came to 10 µM.

As to `O=C1Cc2cc3c(cc2C(c2ccccc2)=NN1C1CCCCC1)OCO3` [Example 31, 3-Cyclohexyl-7,8-methylenedioxy-1-phenyl-3,5-dihydro-2,3-benzodiazepin-4(4H)-one], the “AMPA positive potentiation, 200% @ μM” value in assay [3] amounted to 11 µM.

As for `CCCC(CC)N1N=C(c2ccccc2)c2cc3c(cc2CC1=O)OCO3` (centres unmarked) [Example 33, 3-(3-Hexyl)-7,8-methylenedioxy-1-phenyl-3,5-dihydro-2,3-benzodiazepin-4(4H)-one], the “AMPA positive potentiation, 200% @ μM” value in assay [3] turned out to be 24 µM.

Take `CC1C(=O)NN=C(c2ccc(N)cc2)c2cc3c(cc21)OCO3` (centres unmarked) [Example 45, 1-(4-Aminophenyl)-5-methyl-7,8-methylenedioxy-3,5-dihydro-2,3-benzodiazepin-4(4H)-one]: the IC50 in assay [3] was determined as 4 µM.

With `CC1C(=O)NN=C(c2ccc3c(c2)OCO3)c2cc3c(cc21)OCO3` (centres unmarked) [Example 48, 5-Methyl-1-(3,4-methylenedioxyphenyl)-7,8-methylenedioxy-3,5-dihydro-2,3-benzodiazepin-4(4H)-one], the half-maximal inhibitory concentration (IC50) in assay [3] turned out to be 10 µM.

Turning to `COc1cc(C2=NNC(=O)Cc3cc4c(cc32)OCO4)ccc1[N+](=O)[O-]` [Example 56, 7,8-Methylenedioxy-1-(3-methoxy-4-nitrophenyl)-3,5-dihydro-2,3-benzodiazepin-4(4H)-one], the IC50 in assay [3] amounted to 20 µM.

`Cc1cc(C2=NNC(=O)Cc3cc4c(cc32)OCO4)ccc1N` [Example 61, 1-(4-Amino-3-methylphenyl)-7,8-methylenedioxy-3,5-dihydro-2,3-benzodiazepin-4(4H)-one]: in assay [4], the ED50 was determined as 2.7 mg/kg and the “anticonvulsant activity in the MES experiment” value is “active as anticonvulsants”. In addition, the IC50 in assay [3] worked out at 1 µM.

Turning to `Nc1ccc(C2=NNC(=O)Cc3cc4c(cc32)OCO4)c(Cl)c1` [Example 62, 1-(4-Amino-2-chlorophenyl)-7,8-methylenedioxy-3,5-dihydro-2,3-benzodiazepin-4(4H)-one], in assay [4], the 50% effect level (ED50) was put at a dose of 3.2 mg/kg and the “anticonvulsant activity in the MES experiment” value is listed as “active as anticonvulsants”. The IC50 in assay [3] was determined as 4 µM.

For `Nc1ccc(C2=NNC(=O)Cc3cc4c(cc32)OCO4)cc1Cl` [Example 63, 1-(4-Amino-3-chlorophenyl)-7,8-methylendioxy-3,5-dihydro-2,3-benzodiazepin-4(4H)-one], in assay [3], the IC50 came to 0.8 µM.

Consider `CC1=NN=C(c2ccc(N)cc2)c2cc3c(cc2C1)OCO3.Cl` [GYKI 52466, 1-(4-aminophenyl)-4-methyl-7,8-methylenedioxy-5H-2,3-benzodiazepine-hydrochloride], for which the anticonvulsant activity result in assay [5] is recorded as “effective anticonvulsant”. Also, the “neuroprotection in rat global ischemia” value in assay [6] was “effective neuroprotective agent”.

Take `CC(=O)N1N=C(c2ccc(N)cc2)c2cc3c(cc2C[C@H]1C)OCO3` [LY300164]: the AMPA receptor antagonism result in assay [7] is “noncompetitive antagonist of AMPA receptors”. For the same molecule, the anticonvulsant activity entry in assay [5] is “anticonvulsant activity”.

For the molecule `NS(=O)(=O)c1cccc2c1c([N+](=O)[O-])cc1nc(O)c(O)nc12` [NBQX, 2,3-dihydroxy-6-nitro-7-sulfamoylbenzo[f]quinoxaline], in assay [8], the “prevention of global and focal ischemic damage” value is “effective in preventing global and focal ischemic damage”.
